Km data for one compound are collected here from publication doi:10.1101/2025.05.29.656899v1 (biorxiv, 2025).

As a reminder, the Km is the concentration of substrate that gives half-maximal velocity.

Holding throughout (test): glucosylation kinetics, Michaelis-Menten
Common to all, as to assay type: biochemical

For assay [1], the target named is T1, UGT72B19 (Fagopyrum esculentum, UniProt A0A0A1H7P3).
T1 sequence (A0A0A1H7P3 1-474): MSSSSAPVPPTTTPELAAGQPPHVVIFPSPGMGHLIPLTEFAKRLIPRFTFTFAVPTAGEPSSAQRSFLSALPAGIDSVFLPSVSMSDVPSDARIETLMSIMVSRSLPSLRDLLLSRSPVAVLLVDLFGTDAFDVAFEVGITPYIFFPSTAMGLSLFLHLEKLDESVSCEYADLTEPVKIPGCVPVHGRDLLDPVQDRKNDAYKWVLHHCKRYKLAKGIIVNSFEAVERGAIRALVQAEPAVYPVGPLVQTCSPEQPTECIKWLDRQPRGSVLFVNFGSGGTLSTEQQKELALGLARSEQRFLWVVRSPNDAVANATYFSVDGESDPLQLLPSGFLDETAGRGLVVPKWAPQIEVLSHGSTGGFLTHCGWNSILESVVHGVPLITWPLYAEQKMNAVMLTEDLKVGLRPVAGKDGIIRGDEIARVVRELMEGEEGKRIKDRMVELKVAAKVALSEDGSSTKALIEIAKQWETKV
The settings on record: UDP-glucose donor; phosphate buffer pH 8.0; 39 °C.

For assay [2], the target named is T2, UGT71C1 (Arabidopsis thaliana, UniProt O82381).
T2 sequence (O82381 1-481): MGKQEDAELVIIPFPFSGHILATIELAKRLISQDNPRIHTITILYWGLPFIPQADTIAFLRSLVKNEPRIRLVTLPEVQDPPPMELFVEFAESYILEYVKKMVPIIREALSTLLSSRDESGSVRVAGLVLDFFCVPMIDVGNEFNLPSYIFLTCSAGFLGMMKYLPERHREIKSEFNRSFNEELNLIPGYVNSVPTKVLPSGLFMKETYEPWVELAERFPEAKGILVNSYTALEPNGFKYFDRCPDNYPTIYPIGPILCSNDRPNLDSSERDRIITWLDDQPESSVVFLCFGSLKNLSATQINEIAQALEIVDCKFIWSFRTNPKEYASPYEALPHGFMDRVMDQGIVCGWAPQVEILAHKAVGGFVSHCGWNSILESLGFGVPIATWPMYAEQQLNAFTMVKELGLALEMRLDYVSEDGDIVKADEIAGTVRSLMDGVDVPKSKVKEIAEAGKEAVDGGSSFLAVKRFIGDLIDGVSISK
Particulars: UDP-glucose donor; phosphate buffer pH 8.0; 30 °C.

Assay [3] has as its target T3, UGT72B68 (Solanum lycopersicum, UniProt D7S016).
T3 sequence (D7S016 1-476): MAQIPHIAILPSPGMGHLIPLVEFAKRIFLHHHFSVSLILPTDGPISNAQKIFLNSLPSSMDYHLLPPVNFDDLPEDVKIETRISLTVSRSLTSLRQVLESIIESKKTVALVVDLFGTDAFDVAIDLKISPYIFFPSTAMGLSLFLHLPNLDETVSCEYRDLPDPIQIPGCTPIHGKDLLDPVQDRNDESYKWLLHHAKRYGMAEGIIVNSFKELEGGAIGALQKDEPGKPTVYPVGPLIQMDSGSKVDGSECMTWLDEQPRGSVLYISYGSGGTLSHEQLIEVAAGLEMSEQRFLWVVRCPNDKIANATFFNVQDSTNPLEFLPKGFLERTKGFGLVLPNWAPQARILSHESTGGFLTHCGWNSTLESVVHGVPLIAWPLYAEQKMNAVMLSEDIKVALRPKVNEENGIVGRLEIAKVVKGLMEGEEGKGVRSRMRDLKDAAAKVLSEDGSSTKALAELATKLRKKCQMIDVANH
Particulars: UDP-glucose donor; phosphate buffer pH 8.0; 35 °C.

As for `COC(=O)c1ccccc1N` [MANT, methyl anthranilate], the values for the Km in assay [1], in assay [2] and in assay [3] were 212 ± 19.1 µM, 164 ± 22 µM and 347 ± 45.7 µM, respectively.
